Molecular target: T1, KDM2A (Homo sapiens, UniProt Q9Y2K7)
T1 sequence (Q9Y2K7 1-1162): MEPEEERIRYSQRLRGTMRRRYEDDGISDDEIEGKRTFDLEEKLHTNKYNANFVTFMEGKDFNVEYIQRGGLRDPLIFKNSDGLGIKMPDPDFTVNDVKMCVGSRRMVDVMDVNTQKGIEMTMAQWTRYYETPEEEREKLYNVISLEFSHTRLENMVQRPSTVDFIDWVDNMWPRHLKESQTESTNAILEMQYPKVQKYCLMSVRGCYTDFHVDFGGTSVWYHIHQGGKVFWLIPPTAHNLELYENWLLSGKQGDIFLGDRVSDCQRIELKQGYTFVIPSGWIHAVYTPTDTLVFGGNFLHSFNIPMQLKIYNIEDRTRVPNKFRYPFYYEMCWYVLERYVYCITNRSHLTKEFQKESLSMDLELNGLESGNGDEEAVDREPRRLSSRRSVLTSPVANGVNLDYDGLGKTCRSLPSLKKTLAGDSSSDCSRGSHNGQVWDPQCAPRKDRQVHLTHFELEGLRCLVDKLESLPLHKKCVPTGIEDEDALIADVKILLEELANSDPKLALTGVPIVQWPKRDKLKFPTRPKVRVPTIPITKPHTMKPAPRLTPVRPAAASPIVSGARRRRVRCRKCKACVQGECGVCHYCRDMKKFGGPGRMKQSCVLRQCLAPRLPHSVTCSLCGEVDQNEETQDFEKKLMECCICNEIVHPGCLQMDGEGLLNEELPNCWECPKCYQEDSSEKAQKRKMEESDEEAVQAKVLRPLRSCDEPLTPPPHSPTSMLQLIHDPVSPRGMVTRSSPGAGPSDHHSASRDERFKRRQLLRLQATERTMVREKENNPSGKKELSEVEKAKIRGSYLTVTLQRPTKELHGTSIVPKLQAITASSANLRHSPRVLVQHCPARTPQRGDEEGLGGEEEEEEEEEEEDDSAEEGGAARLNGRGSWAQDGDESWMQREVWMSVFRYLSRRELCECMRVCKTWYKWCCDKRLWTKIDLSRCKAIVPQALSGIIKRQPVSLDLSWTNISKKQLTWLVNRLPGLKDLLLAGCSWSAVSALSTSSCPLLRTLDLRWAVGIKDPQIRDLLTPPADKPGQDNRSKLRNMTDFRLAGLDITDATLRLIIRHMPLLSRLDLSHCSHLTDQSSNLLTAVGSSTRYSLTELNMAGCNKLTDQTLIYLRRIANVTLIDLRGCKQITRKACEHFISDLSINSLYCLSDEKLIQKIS
Assay: KDM AlphaScreen selectivity panel, KDM2A
Type: biochemical
Conditions: for IC50: AlphaScreen after 120 min pre-incubation, read-out: KDM IC50 2A; for SI over KDM5B, 2A: KDM2A IC50/KDM5B IC50
Procedure: A panel of JmjC KDMs was tested by AlphaScreen to determine the selectivity of the compounds (Table S2). […]
KDM alpha screen selectivity
Inhibition of histone demethylases was assessed using the histone demethylase AlphaScreen assay (Amplified Luminescence Proximity Homogenous Assay) as previously reported.[4] The basis of this assay for lysine demethylases have been widely described.[5] In brief, the assay was performed in 384-well plate format using white proxiplates (PerkinElmer), and transfer of titrations of compounds (100 nl) was performed using an ECHO 550 acoustic dispenser […]
Tween- 20) containing the appropriate demethylase enzyme (see Supplementary table 1 for final concentrations) was transferred to each well of a 384-well proxiplate with a Multidrop™ Combi Reagent Dispenser, and the enzymes allowed to pre-incubate for 120 minutes with compound (final concentration of DMSO was 1%). After that time, the enzyme reaction was initiated by addition of 5 µl of a substrate mix consisting of Ketoglutarate (2-OG), Ferrous Ammonium Sulphate (FAS), L-Ascorbic Acid (LAA) and biotinylated peptide substrate (see Supporting table X for final assay concentrations) and the reaction incubated for the indicated time at room temperature. Reaction was stopped by the addition of 5 μl of assay buffer containing EDTA (7.5 mM) and NaCl (400 mM). Streptavidin Donor beads (0.08 mg/ml) and Protein-A conjugated acceptor beads (0.08 mg/ml) (AlphaScreen General IgG detection kit was from Perkin Elmer) were pre-incubated for 1 hour with an antibody to the product methyl mark (Supplementary Table 1) and the presence of biotin-H3-product was detected by addition of 5 µl of the pre-incubated AlphaScreen beads (final concentrations of 0.02 mg/ml with respect to acceptor and donor beads). Detection was allowed to proceed for 2 hour at room temperature and the assay plates read in a BMG Labtech Pherastar FS plate reader (excitation, 680 nm; emission, 570 […]
IC50(t) = Ki (1 + K ) . ( η . k .t − 1) (1) […]
Table S4. AlphaScreen assay conditions for the KDM selectivity panel

C=CC(=O)N1CCC(n2cc(-c3[nH]c4c(C#N)cnn4c(=O)c3C(C)C)cn2)CC1 [Compound 10]
IC50: > 100 µM
SI over KDM5B, 2A: > 5843

C=CC(=O)Nc1cccc(CN(C)CCc2cnn(-c3nccc4c(=O)[nH]cnc34)c2)c1 [Compound 4]
IC50: 11.3 ± 0.3 µM
SI over KDM5B, 2A: 558

CC(C)c1c(-c2cnn(CCNC(=O)CCl)c2)[nH]c2c(C#N)cnn2c1=O [Compound 7]
IC50: > 100 µM
SI over KDM5B, 2A: > 14113

C=CC(=O)NCCOc1ccc(-c2[nH]c3c(C#N)cnn3c(=O)c2C(C)C)cc1 [Compound 9]
IC50: > 100 µM
SI over KDM5B, 2A: > 1550

CN(C)C/C=C/C(=O)Nc1cccc(CN(C)CCc2cnn(-c3nccc4c(=O)[nH]cnc34)c2)c1 [Compound 6]
IC50: > 33 µM

CN(CCc1cnn(-c2nccc3c(=O)[nH]cnc23)c1)Cc1cccc(NC(=O)CCl)c1 [Compound 5]
IC50: 4.4 ± 0.1 µM
SI over KDM5B, 2A: 451

CC(C)c1c(-c2cnn(C3CCN(C(=O)CCl)CC3)c2)[nH]c2c(C#N)cnn2c1=O [Compound 11]
IC50: > 60 µM
SI over KDM5B, 2A: > 6671
